Results published in US8552060B2, “Methods for treatment of sexual dysfunction” (SK Biopharmaceuticals Co., Ltd., priority 2005, dated 2013).

Legend:
[1] = test system: ovariectomized estrogen treated rat; assay: Lordotic response in the ovariectomized estrogen treated rat (female sexual behavior); format: in vivo
Experimental: For initial preclinical evaluation of the effects on sexual behavior, the following study was conducted to evaluate the effects of test compound on lordotic response in the ovariectomized estrogen treated rat.
Animals: Long-Evans hooded female rates (100-125 g) male Sprague-Dawley rats (150-175 g) were obtained from Charles River Breeding laboratories.
Chemicals: Progesterone (Cat. # P-0130; Lot 128H0456) and estrone (Cat # E-9750; Lot 28H0372) were purchased from Sigma Chemical Company and quinelorane Cat # Q-110; Lot PRF-694A) and bupropion (Cat # B-102; BS-11-10) were purchased from Research Biochemicals Incorporated. Test compound (Lot # D5-91B) was synthesized at SK Biopharmaceutical Center, Fairfield, N.J. Estrone and progesterone were dissolved in propylene glycol (Fisher Scientific P355-1; Lot # 992032). test compound, quinelorane and bupropion were dissolved in sterile saline (0.9% NaCl, Abbott Laboratories Lot #25-270-DK).
Protocol for ovariectomy: Female rats (108-120 g) were anesthetized with 100 mg/kg s.c. ketamine (Ketaset 100 mg/ml, Ford Dodge Laboratories, lot #440339) and 7 mg/kg s.c. xylazine (Rompun 20 mg/ml, Bayer Corporation, lot #26050E). A midline incision (1 cm) on the ventral surface was made starting approximately 0.5-1 cm from the genitalia. A second incision (1 cm) was through the linea alba connecting fascia for abdominal muscles. The body of the uterus was located near the pubic bone and retracted through the abdominal incision. The uterine horns with ovaries were retracted through the abdominal wall. Each uterine horn was ligated near the uterine body bisected and removed. The abdominal, wall was closed with 2 sutures and the skin incision was closed with either wound clips or sutures. The rats were kept warm until they recovered from the anesthesia. OVX=ovariectomized.
Accelerated light cycle (10:14): Lights were on from 1 am to 11 am. During dark phase, the room was kept dark except for lighting from red lights needed to observe the behaviors.
Behavior observation arenas: Side walls (45×60 cm) and top (60×60 cm) with hole (15×15 cm) were constructed of clear Lucite plastic and bonded together with adhesive. The base was made from stainless steel grating and was placed over bedding material. Arenas and base were washed between experiments.
Protocol for female sexual behavior: At least 2-3 hours into the dark phase of the lighting cycle, male rats are placed into the behavior arenas and allowed to acclimate for 15 minutes prior to testing. Prior to the testing of experimental animals, the males are exposed to sexually receptive, OVX rats treated with estrone 0.25 mg s.c. 48 hours prior to test and progesterone 1 mg s.c. 6 hours prior to test. When active mating occurs, the receptive females are removed. The test female (OVX treated only with estrone 0.25 mg 48 hours prior to test) is added to the arena with the activated male. The number of lordosis responses for 15 mounts is recorded (lordosis is defined as a downward arching of the back to expose genitalia).
During this first test period, only female rats with a L/M of 4/15 or lower were treated with test drug and 90 minutes later the rats were retested as previously for 15 mounts. This exclusion criterion is used to lower the variance due to rats that become overly receptive to estrone. The index of change is the change in L/M between test 2 and test 1. Statistical comparisons of the treatment groups were made using ANOVA followed by a Dunnett's test for multiple treatment group designs and a Student's t test for single control and treatment designs with the minimum level of significance set at p<0.05.

patients = conditions: Foreman 1995; cited from earlier work
humans = assay: Placebo controlled antidepressant trial in humans, analysis of post trial questionnaires; format: in vivo, human; conditions: mostly in males
Source text: This was a large placebo controlled study where the test compound was compared with a conventional SSRI antidepressant (Paroxetine). […] This study was not designed to see or evaluate this property of the compound and so future studies directed specifically to assess this property of test compound in humans will be performed.

rats and mice = assay: Locomotor activity in rats and mice; format: in vivo; conditions: at higher dose
Source text: Although the mechanism of action of test compound is unknown, this pharmacological profile may involve activation of central catecholaminergic pathways.

Structure (SMILES) | Lordotic response compared to vehicle treatment ([1]; 30 mg/kg s.c.) | Change in Lordotic Response ([1]; 30 mg/kg s.c., change in L/M, * significantly different from vehicle (Student's test)) | Effect on sexual response in patients (patients) | Lordotic response compared to vehicle treatment ([1]; 25 μg/kg s.c.) | Change in Lordotic Response ([1]; 25 μg/kg s.c., change in L/M, * significantly different from vehicle (Student's test)) | Change in Lordotic Response ([1]; 10 mg/kg s.c., change in L/M between test 2 and test 1, retest 90 minutes after drug, OVX estrone treated female rats) | Change in Lordotic Response ([1]; 30 mg/kg s.c., change in L/M between test 2 and test 1, retest 90 minutes after drug, * significantly different from vehicle (ANOVA, Dunnett's test)) | Change in Lordotic Response ([1]; 100 mg/kg s.c., change in L/M between test 2 and test 1, retest 90 minutes after drug, * significantly different from vehicle (ANOVA, Dunnett's test)) | Lordotic response compared to vehicle treatment ([1]; 30 and 100 mg/kg s.c.) | Lordotic behavior in the female rat, dose relation ([1]; doses of 10, 30 and 100 mg/kg s.c.) | Dose of peak effect on interest in sex and ability to have an orgasm (humans) | Effect on interest in sex and ability to have an orgasm (post trial questionnaires) (humans; placebo controlled study with Paroxetine comparator) | Effects on locomotor activity (rats and mice)
CC(NC(C)(C)C)C(=O)c1cccc(Cl)c1 (centres unmarked) [Bupropion, bupropion, reference compound] | significant increases in lordotic response | 0.478 +/− 0.073 * | augment sexual response in patients | – | – | – | – | – | – | – | – | – | –
CCCN1CCC[C@@H]2Cc3nc(N)ncc3C[C@H]21 [Quinelorane, quinelorane, reference compound] | – | – | augment sexual response in patients | significant increases in lordotic response | 0.593 +/− 0.056 * | – | – | – | – | – | – | – | –
NC(=O)OC[C@H](N)Cc1ccccc1 [test compound, O-carbamoyl-(D)-phenylalaninol] | – | – | – | – | – | 0.338 +/− 0.049 | 0.476 +/− 0.049 * | 0.559 +/− 0.059 * | significantly greater lordotic response than vehicle treatment | dose-related increases in lordotic behavior | 400 mg per day | increasing interest in sex and in ability to have an orgasm | stimulant-like effects on locomotor activity
